Test results: patent US12558400B2, “Method of treatment of soft tissue sarcoma with a peptide comrpising a PCNA interacting motif” (THERAPIM PTY LTD, priority 2020, dated 2026)
Where no end group is shown, it is not given here.

Columns and labels:
[1] = test system: patients with advanced solid tumors; assay: Phase I safety and tolerability study of ATX-101 (studies ATX101-01 and -02); type: in vivo
Protocol: A Phase I, open-label, single arm, safety and tolerability study was conducted (study ATX101-01) which evaluated escalating dose cohorts of ATX-101 (SEQ ID NO: 914) in patients with advanced solid tumors. The study was designed to systematically assess safety and tolerability, and to identify the Maximum Tolerated Dose (MTD) and recommended Phase II dose for ATX-101. Pharmacokinetics and preliminary efficacy (anti-tumor activity) were also assessed.
If at the end of the 6-week Phase I study (study ATX101-01) the patient's tumor didn't show signs of progression, treatment could be continued in a long-term follow-up study (study ATX101-02) until disease progression or other reasons for treatment discontinuation, e.g. withdrawal of consent.
Four dose levels (20, 35, 45 and 60 mg/m^2 of body surface area calculated based on the height and weight of patients) of intravenous ATX-101 (net peptide, excluding the mass of the salt component) were tested in the Phase I study (study ATX101-01). ATX-101 was administered via IV infusion over at least 1 hour either using a constant infusion rate or an adaptable infusion rate scheme starting with 5 mg/hr and increasing the infusion flow rate every 30 minutes, as outlined in the infusion rate table below (Table 1). […] Doses of 45 and 60 mg/m^2 were administered in 500 mL.
Treatment was administered weekly in cycles of 21-day duration, with a single IV infusion of ATX-101 on Day 1, 8 and 15 of each cycle. Dosing of patients occurred weekly for up to two cycles (i.e. 2×21 days=6 weeks).
Following the initial 6 weeks of treatment in the Phase I study (study ATX101-01), patients could continue the treatment in the long-term follow-up study (study ATX101-02). These patients, that received the same dose regimen as in study −01, were treated for up to 15.6 months.
Safety: Incidence, severity, and duration of treatment-emergent adverse events (TEAEs) and treatment related TEAEs were assessed according to Common Terminology Criteria for Adverse Events (CTCAE) v4.03.

[2] = Solubility of the peptide drug substance; type: physicochemical; details: water and aqueous media; hydrochloride salt
Description: The product was available as a hydrochloride salt (chloride counter-ion is ionically bound to the basic side chains of the peptide; 18 mol/mol peptide, theoretically; Molecular formula: C158H285N71O29S, 18 HCl; Relative molecular mass: […]. Free base: 3673.3).

## Ac-MDRWLVKWKKKRKIRRRRRRRRRRR (N-terminus assumed) [ATX-101]
[1]; 22 patients, weekly IV infusion, all dose levels (20-60 mg/m^2)
  treatment related deaths: No treatment related deaths
[1]; in vivo
  course of infusion-related reactions after repeated doses: did not worsen
[1]; in vivo, iv
  Dose Limiting Toxicities (DLTs): no Dose Limiting Toxicities
  infusion-related reactions (IRR) Grade 1 or 2, proportion of patients: 73%
  treatment discontinuation due to treatment related toxicity: no treatment discontinuation due to treatment related toxicity
  treatment related serious adverse event or severe adverse event: no treatment related serious adverse event or severe adverse event
[2]
  solubility: freely soluble
